Assay results as given in US4629736A, “Fatty acid derivatives and process of producing them” (Yamanouchi Pharmaceutical Co., Ltd., priority 1983, dated 1986).
Values belong to the compound of their own block, whether it stands above or below them.

How the values were obtained:
[1] = system: Fibrin-clot (lysis by Urokinase); test: Fibrinolytic action (fibrin-clot lysis assay), clot lysis time relative to Urokinase alone; format: biochemical
Procedure: FIBRINOLYTIC ACTION (Fibrin-clot lysis assay)
Fibrinogen (1 mg/50 μl, made by Green Cross Corporation) and various amounts of the test compounds, were added to test tubes, followed to make a total volume of 850 μl with cold Tris-buffered saline (20 mM Tris-buffer, pH 7.4, containing 140 mM NaCl). To the solutions were added 100 μl of Urokinase solution (30 CTA unit/0.1 ml) and 50 μl of thrombin solution (2 NIH units/50 μl) to make final clot volume of 1 ml each in test tubes in an ice bath. The tubes were quickly shaken to mix the reagents well and immediately placed in a 37° C. water bath, and the clot lysis time was recorded. Test compounds were dissolved in physiological saline, except contrast one dissolved in physiological saline containing 10% cremophore and 0.15% ethanol. Thus, by measuring the time of clot lysis, the relative activity of the fibrinolytic action of the test compound to that of Urokinase using the system of Urokinase alone as the control was determined. The results of the pharmacological effect of the compounds of this invention are shown in Table 1 below together with that of 3-hexadecanoyloctadecanoyl-β-alanyl-L-phenylalanine having the formula [drawing 15] which is one of the compounds having the most excellent fibrinolytic action in known compounds.

[2] = system: mice; test: Acute toxicity, intravenous injection to mice; format: in vivo; settings: mouse
Procedure: In addition, the acute toxicity of the compound in Example 21 was measured as follows.

[3] = Solubility in saline; format: physicochemical
Description: In particular, the compounds of this invention have been discovered after investigating the point of water solubility, which has never been attained in known acylpeptides. That is, the compounds of this invention have very improved water solubility, whereby sufficient pharmacological effect of the compounds can be expected and also the preparations of the compounds, such as the application to injections, and the like, can be easily performed. For example, the solubility of compound of Example 21 is more than 5 mg/ml saline.

[4] = at 1 × 10^-5 M, solvent physiological saline solution

SMILES: CCCCCCCCCCCCCC(CC(=O)N[C@@H](Cc1ccccc1)C(=O)O)OC(=O)COCCOCCCCCCCCCC (stereo partly drawn) [Example 21, N-[3-(3,6-dioxahexadecanoyloxy)hexadecanoyl]-L-phenylalanine]
acute toxicity (dose without death) [2]: higher than 200 mg/40 ml saline/kg
solubility [3]: more than 5 mg/ml saline
Fibrinolytic Action, maximum relative activity (%) with the activity of Urokinase alone being defined to 100% ([1]; at 3 × 10^-6 M, solvent physiological saline solution): 150-160%

SMILES: CCCCCCCCCCCCCCCC(CC(=O)N[C@@H](Cc1ccccc1)C(=O)O)OC(=O)COCCOCCOCCCCCC (stereo partly drawn) [Example 20, N-[3-(3,6,9-trioxapentadecanoyloxy)octadecanoyl]-L-phenylalanine]
Fibrinolytic Action, maximum relative activity (%) with the activity of Urokinase alone being defined to 100% [1, 4]: 130-150%

SMILES: CCCCCCCCCCOCCNC(=O)[C@H](CC(=O)O)NC(=O)COCCOCCCCCCCCCC [Example 14, (S)-3-(3,6-dioxahexadecanamido)-3-(3-oxatridecylcarbamoyl)propionic acid]
Fibrinolytic Action, maximum relative activity (%) with the activity of Urokinase alone being defined to 100% [1, 4]: 150%

SMILES: CCCCCCCCCCCCCCCC(CC(=O)N[C@@H](Cc1ccccc1)C(=O)O)OC(=O)COCCOCCOCCOCCCC (stereo partly drawn) [Example 19, N-[3-(3,6,9,12-tetraoxahexadecanoyloxy)octadecanoyl]-L-phenylalnine]
Fibrinolytic Action, maximum relative activity (%) with the activity of Urokinase alone being defined to 100% [1, 4]: 130-140%

Continued, values first:

Fibrinolytic Action, maximum relative activity (%) with the activity of Urokinase alone being defined to 100% ([1]; at 1 × 10^-4 M, solvent Cremophore solution): 140-150%
SMILES: CCCCCCCCCCCCCCCC(=O)C(CCCCCCCCCCCCCCC)CC(=O)NCCC(=O)N[C@@H](Cc1ccccc1)C(=O)O (stereo partly drawn) [Known compound, 3-hexadecanoyloctadecanoyl-β-alanyl-L-phenylalanine, reference compound]

Fibrinolytic Action, maximum relative activity (%) with the activity of Urokinase alone being defined to 100% ([1]; at 3 × 10^-5 M, solvent physiological saline solution): 160%
SMILES: CCCCCCCCCCCCCCCC(CC(=O)N[C@@H](CO)C(=O)O)OC(=O)COCCOCCCCCCCCCC (stereo partly drawn) [Example 22, N-[3-(3,6-dioxahexadecanoyloxy)octadecanoyl]-L-serine]
